According to PubChem BioAssay (NCI):
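Cells were grown in 96-well plates and exposed to each compound for 48 hours at five concentrations; endpoints were interpolated linearly between bracketing concentrations, or set to the highest concentration if not reached. TGI marks complete inhibition of growth.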

Tests used:
Assay in all cases: DTP human tumour cell line panel, 48 h
[1] = test system: SF-268 CNS
[2] = test system: COLO 205 colon
[3] = test system: CCRF-CEM leukemia
[4] = test system: IGROV1 ovarian
[5] = test system: UO-31 renal
[6] = test system: NCI-H522 lung
[7] = test system: NCI-H23 lung
[8] = test system: HCT-116 colon
[9] = test system: BT-549 breast
[10] = test system: HCC-2998 colon
[11] = test system: NCI-H226 lung
[12] = test system: SN12C renal
[13] = test system: DU-145 prostate
[14] = test system: NCI/ADR-RES ovarian
[15] = test system: MCF7 breast
[16] = test system: SK-MEL-2 melanoma
[17] = test system: HL-60(TB) leukemia
[18] = test system: MDA-MB-231 breast
[19] = test system: EKVX NSCLC
[20] = test system: SK-MEL-5 melanoma

O=C(NNC(=S)NCc1ccccc1)C12CC3CC(CC(C3)C1)C2
TGI [1]: > 100 µM | TGI [2]: 44.1 µM | TGI [3]: > 100 µM | TGI [4]: > 100 µM | TGI [5]: > 100 µM | TGI [6]: > 100 µM | TGI [7]: > 100 µM | TGI [8]: > 100 µM | TGI [9]: > 100 µM | TGI [10]: > 100 µM | TGI [11]: > 100 µM | TGI [12]: > 100 µM | TGI [13]: > 100 µM | TGI [14]: > 100 µM | TGI [15]: > 100 µM | TGI [16]: > 100 µM | TGI [17]: 51.7 µM | TGI [18]: > 100 µM

O=C1NC(S(=O)(=O)O)=NNC12c1ccccc1-c1ccccc12
TGI [1]: > 10 µM | TGI [2]: > 10 µM | TGI [3]: > 10 µM | TGI [4]: > 10 µM | TGI [5]: > 10 µM | TGI [6]: > 10 µM | TGI [7]: > 10 µM | TGI [8]: > 10 µM | TGI [9]: > 10 µM | TGI [10]: > 10 µM | TGI [11]: > 10 µM | TGI [19]: > 10 µM | TGI [12]: > 10 µM | TGI [13]: > 10 µM | TGI [14]: > 10 µM | TGI [15]: > 10 µM | TGI [20]: > 10 µM | TGI [17]: > 10 µM | TGI [18]: > 10 µM

Cn1c2c3c(F)c(F)ccc3nc-2cc2ccccc21
TGI [1]: 25.4 µM | TGI [2]: 10.7 µM | TGI [3]: 28 µM | TGI [4]: 15.9 µM | TGI [5]: 7.52 µM | TGI [6]: 14.3 µM | TGI [7]: 3.18 µM | TGI [9]: 20 µM | TGI [10]: 3.63 µM | TGI [11]: 13.4 µM | TGI [19]: 26.8 µM | TGI [12]: 6.23 µM | TGI [13]: 10.2 µM | TGI [14]: 7.68 µM | TGI [15]: 30 µM | TGI [16]: 14.1 µM | TGI [20]: 12.8 µM | TGI [17]: 56.6 µM | TGI [18]: 20.8 µM

COC(=O)[C@@H]1Cc2cc(O)c(O)cc2C2(CCN(C)CC2)O1
TGI [1]: > 10 µM | TGI [2]: > 10 µM | TGI [3]: > 10 µM | TGI [4]: > 10 µM | TGI [6]: > 10 µM | TGI [7]: > 10 µM | TGI [8]: > 10 µM | TGI [9]: > 10 µM | TGI [10]: > 10 µM | TGI [11]: > 10 µM | TGI [19]: > 10 µM | TGI [12]: > 10 µM | TGI [13]: > 10 µM | TGI [14]: > 10 µM | TGI [15]: > 10 µM | TGI [16]: > 10 µM | TGI [20]: > 10 µM | TGI [17]: > 10 µM | TGI [18]: > 10 µM

COc1ccc(-c2nc(-c3cnccn3)n(COCCO)n2)cc1
TGI [1]: > 100 µM | TGI [2]: > 100 µM | TGI [3]: > 100 µM | TGI [4]: > 100 µM | TGI [5]: > 100 µM | TGI [6]: > 100 µM | TGI [7]: > 100 µM | TGI [8]: > 100 µM | TGI [9]: > 100 µM | TGI [10]: > 100 µM | TGI [12]: > 100 µM | TGI [13]: > 100 µM | TGI [14]: > 100 µM | TGI [15]: > 100 µM | TGI [20]: > 100 µM | TGI [17]: > 100 µM | TGI [18]: > 100 µM

COC(=O)C1C(C(=O)OC)C1(Br)CBr (stereo not given)
TGI [1]: > 100 µM | TGI [2]: 41 µM | TGI [4]: > 100 µM | TGI [5]: 34.9 µM | TGI [6]: 14.1 µM | TGI [7]: > 100 µM | TGI [8]: > 100 µM | TGI [9]: 94.3 µM | TGI [10]: > 100 µM | TGI [11]: > 100 µM | TGI [19]: 90.3 µM | TGI [12]: 79.4 µM | TGI [13]: > 100 µM | TGI [14]: > 100 µM | TGI [15]: > 100 µM | TGI [16]: > 100 µM | TGI [20]: > 100 µM | TGI [17]: > 100 µM | TGI [18]: > 100 µM

COc1ccc(Nc2nc3ccccc3nc2C(=O)O)cc1OC
TGI [1]: > 100 µM | TGI [2]: > 100 µM | TGI [3]: > 100 µM | TGI [4]: > 100 µM | TGI [5]: 97.8 µM | TGI [6]: > 100 µM | TGI [7]: > 100 µM | TGI [8]: > 100 µM | TGI [9]: > 100 µM | TGI [10]: > 100 µM | TGI [11]: > 100 µM | TGI [19]: > 100 µM | TGI [12]: > 100 µM | TGI [13]: > 100 µM | TGI [14]: > 100 µM | TGI [15]: > 100 µM | TGI [20]: > 100 µM | TGI [17]: > 100 µM | TGI [18]: > 100 µM

C=CCn1cnc2c(=O)[nH]c(Nc3ccccc3)nc21
TGI [1]: > 100 µM | TGI [2]: > 100 µM | TGI [3]: > 100 µM | TGI [4]: > 100 µM | TGI [5]: > 100 µM | TGI [6]: > 100 µM | TGI [8]: > 100 µM | TGI [9]: > 100 µM | TGI [10]: > 100 µM | TGI [11]: > 100 µM | TGI [19]: > 100 µM | TGI [12]: > 100 µM | TGI [13]: > 100 µM | TGI [14]: > 100 µM | TGI [15]: > 100 µM | TGI [16]: > 100 µM | TGI [20]: > 100 µM | TGI [17]: > 100 µM | TGI [18]: > 100 µM

O=[N+]([O-])c1sc2ccc(Cl)cc2c1Nc1ccc(Cl)cc1
TGI [1]: > 100 µM | TGI [2]: > 100 µM | TGI [3]: > 100 µM | TGI [4]: > 100 µM | TGI [5]: > 100 µM | TGI [6]: > 100 µM | TGI [7]: > 100 µM | TGI [9]: > 100 µM | TGI [10]: > 100 µM | TGI [11]: > 100 µM | TGI [19]: > 100 µM | TGI [12]: > 100 µM | TGI [13]: > 100 µM | TGI [14]: > 100 µM | TGI [15]: > 100 µM | TGI [16]: > 100 µM | TGI [20]: > 100 µM | TGI [17]: > 100 µM | TGI [18]: > 100 µM

CN(C)c1ccc(C(=NN)c2ccc(N(C)C)cc2)cc1
TGI [1]: > 100 µM | TGI [3]: 3.41 µM | TGI [4]: > 100 µM | TGI [5]: > 100 µM | TGI [6]: 18.7 µM | TGI [7]: > 37.7 µM | TGI [8]: > 100 µM | TGI [9]: > 100 µM | TGI [10]: 3.73 µM | TGI [11]: > 62.4 µM | TGI [19]: > 100 µM | TGI [12]: > 100 µM | TGI [13]: > 35 µM | TGI [14]: 0.672 µM | TGI [15]: > 100 µM | TGI [16]: 0.445 µM | TGI [20]: > 100 µM | TGI [17]: 3.35 µM | TGI [18]: 10 µM

COc1ccc(N2C(=O)/C(=C\c3cccc(Oc4ccccc4)c3)SC2c2ccccc2)cc1 (stereo not given)
TGI [1]: > 100 µM | TGI [2]: > 100 µM | TGI [3]: 44.8 µM | TGI [5]: > 100 µM | TGI [6]: 58.9 µM | TGI [7]: > 100 µM | TGI [8]: > 100 µM | TGI [9]: > 100 µM | TGI [10]: > 100 µM | TGI [11]: > 100 µM | TGI [19]: > 100 µM | TGI [12]: > 100 µM | TGI [13]: > 100 µM | TGI [14]: > 100 µM | TGI [15]: > 100 µM | TGI [16]: > 100 µM | TGI [20]: > 100 µM | TGI [17]: > 100 µM | TGI [18]: > 100 µM

CCCCCCCCCc1c(O)c(O)c(CCCCCCCCC)c(CCCCCCCCC)c1CCCCCCCCC
TGI [1]: > 100 µM | TGI [2]: > 100 µM | TGI [3]: 88.6 µM | TGI [4]: > 100 µM | TGI [6]: > 100 µM | TGI [7]: > 100 µM | TGI [8]: > 100 µM | TGI [9]: > 100 µM | TGI [10]: > 100 µM | TGI [11]: > 100 µM | TGI [19]: > 100 µM | TGI [12]: > 100 µM | TGI [13]: > 100 µM | TGI [14]: > 100 µM | TGI [15]: > 100 µM | TGI [16]: > 100 µM | TGI [20]: > 100 µM | TGI [17]: 50 µM | TGI [18]: > 100 µM
